# Reference: patent US20130197030A1, “Substituted 1,3-Dioxanes and There Uses” (Evolva Sa, priority 2007, published 2013)
# Legend:
# Thromboxane synthase = target: T1, Thromboxane synthase (Homo sapiens, UniProt P24557); assay: Human platelet thromboxane synthase assay; format: biochemical
# T1 construct: Human Platelet Thromboxane Synthase Assay; from tissue; host or cells: human platelets
# T1 sequence (P24557 1-533): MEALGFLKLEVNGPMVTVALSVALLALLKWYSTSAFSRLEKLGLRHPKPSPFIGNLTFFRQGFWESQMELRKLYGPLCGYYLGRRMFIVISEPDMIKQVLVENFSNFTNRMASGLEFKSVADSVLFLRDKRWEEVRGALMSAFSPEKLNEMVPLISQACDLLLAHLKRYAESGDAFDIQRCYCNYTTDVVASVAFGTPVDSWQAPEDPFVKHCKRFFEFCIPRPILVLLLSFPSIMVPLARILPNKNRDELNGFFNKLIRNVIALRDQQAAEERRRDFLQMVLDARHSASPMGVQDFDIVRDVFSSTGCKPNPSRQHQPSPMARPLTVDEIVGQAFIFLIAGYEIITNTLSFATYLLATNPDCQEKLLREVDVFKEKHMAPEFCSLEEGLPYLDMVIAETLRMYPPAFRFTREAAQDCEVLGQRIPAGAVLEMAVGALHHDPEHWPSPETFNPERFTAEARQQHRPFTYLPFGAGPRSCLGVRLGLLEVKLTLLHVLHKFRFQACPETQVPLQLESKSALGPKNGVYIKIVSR
# Method: The compounds were tested for thromboxane synthase inhibition essentially as described by Borsch-Haubold A G, Pasquet S, Watson S P. (1998). Direct inhibition of cyclooxygenase-1 and -2 by the kinase inhibitors SB 203580 and PD 98059. […] 1. Imidazole derivatives. J Med. Chem. (10):1139-48 according to the following:
# Pre-incubation time, temp: 15 minutes at 25° C. Incubation time, temp: 3 minutes at 25° C.
# Incubation Buffer: 10 mM Tris-HCl, pH 7.4
# Quantification Method: ETA quantification of TxB2
# [1] = tested on: U-46619-induced platelet aggregation; assay: TP receptor platelet aggregation, rabbit; format: cell-based, New Zealand Rabbit
# Method: Thrombosis Research 33:277-288.
# TP Receptor Platelet Aggregation—Rabbit:
# New Zealand Rabbit (2.75±0.25 kg) platelet rich plasma
# Assay: Inhibition of 1.5 μM U-46619-induced platelet aggregation Incubation Time, Temp: 5 minutes at 37° C. Incubation Buffer Trisodium Citrate (0.13 M)-treated platelet rich plasma
# Time of Assessment: 5 minutes
# Quantification Method Optical Density Change
# [2] = target: T2, Human Recombinant (E. coli) PPARgamma (Homo sapiens, UniProt P37231); assay: PPAR gamma binding assay
# T2 construct: host or cells: E. coli
# T2 sequence (P37231 1-505): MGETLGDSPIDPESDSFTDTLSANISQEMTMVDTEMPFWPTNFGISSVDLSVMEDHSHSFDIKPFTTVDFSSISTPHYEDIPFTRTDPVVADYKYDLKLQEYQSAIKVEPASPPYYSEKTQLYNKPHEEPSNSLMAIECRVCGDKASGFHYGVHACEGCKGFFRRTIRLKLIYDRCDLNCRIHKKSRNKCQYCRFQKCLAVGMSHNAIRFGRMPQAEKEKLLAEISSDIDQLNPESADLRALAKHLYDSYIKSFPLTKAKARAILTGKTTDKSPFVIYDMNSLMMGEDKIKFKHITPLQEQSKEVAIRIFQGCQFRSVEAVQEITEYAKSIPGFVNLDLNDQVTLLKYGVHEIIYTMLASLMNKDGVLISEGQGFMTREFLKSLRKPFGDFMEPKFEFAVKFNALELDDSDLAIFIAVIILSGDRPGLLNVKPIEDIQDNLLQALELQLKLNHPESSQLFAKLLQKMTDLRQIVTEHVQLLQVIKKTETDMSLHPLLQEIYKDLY
# Method: Incubation: 120 min. at 4° C.
# The results are expressed as a percent of control specific binding ((measured specific binding/control specific binding)×100) obtained in the presence of the test compounds. The IC50 values (concentration causing a half-maximal inhibition of control specific binding) and Hill coefficients (nil) were determined by non-linear regression analysis of the competition curves generated with mean replicate values using Hill equation curve fitting (Y=D+[(A−D)/(1+(C/C50)nH)], where Y=specific binding, D=minimum specific binding, A=maximum specific binding, C=compound concentration, C50=IC50, and nH=slope factor). This analysis was performed using a software developed at Cerep (Hill software) and validated by comparison with data generated by the commercial software SigmaPlot 4.0 for Windows® (© 1997 by SPSS Inc.). The inhibition constants (Ki) were calculated using the Cheng Prusoff equation (Ki=IC50/(1+(L/KD)), where L=concentration of radioligand in the assay, and KD=affinity of the radioligand for the receptor).
# KKA^y mice = assay: In vivo effect on serum glucose and other parameters in KKA^y mice; conditions: dose not given
# Method: 52 male KKA^y mice are obtained commercially (e.g., from Clea Japan) at an age of 6 weeks and put on a high fat diet upon arrival. Individual mice were housed in IVC Type II cages during both the acclimatization and the experimental phase. Both food (high fat diet) and water are supplied ad libitum.
# 1 animal per cage. […] Lights on at 06:00 a.m. Temperature: 21-25° C. Relative humidity target range: 55-60%.
# Mice were randomized into treatment groups according to their 4-h fasting blood glucose.
# 4 hours after the last administration, non-fasting conditions.
# Gamma irradiated high fat diet is commercially available (e.g., Research Diets, Inc. New Brunswick, N.J. (Product # D12266BI)).
# Blood is collected into heparin containing glass capillaries which are subsequently centrifuged in a “Haematokrit 24” centrifuge (Hettich) at 15′200×g for 10 minutes at room temperature to obtain the hematocrit value.
# The following serum parameters are determined on a COBAS INTEGRA 800 auto analyzer (Roche Diagnostics, Switzerland) using the reagents and protocols provided by the supplier.
# All measurements are made on Day 14 of administration, except for the food intake and body weight measurements that are made on Day 12.
smiles,measurement,setting,value
"O=C(O)CC/C=C\CC1COC(c2coc3ccc(Cl)cc3c2=O)OC1c1ccccc1O (racemic) [Compound 3, (Z)-6-(2-(6-Chloro-4-oxo-4H-chromen-3-yl)-4-(2-hydroxyphenyl)-1,3-dioxan-5-yl)hex-4-enoic acid]",IC50,Thromboxane synthase,56 nM
same,Inhibition of thromboxane synthase (in words),Thromboxane synthase,potent inhibitors of thromboxane synthase
same,inhibition at 5 µM,Thromboxane synthase; at 5 μM,94%
same,Inhibition of platelet aggregation (in words),[1],potent inhibitors of platelet aggregation
same,inhibition at 30 µM,"[1]; Oryctolagus cuniculus, at 30 μM, 1.5 μM U-46619, platelet rich plasma",100%
same,Ki,"[2]; [3H]-rosiglitazone 10 nM, Cheng Prusoff, read-out: PPARγ binding Ki",2700 nM
same,IC50,"[2]; [3H]-rosiglitazone 10 nM, read-out: PPARγ binding IC50",7.4 µM
same,Binding to PPARgamma (in words),[2]; compared with Compound A,binds to PPARgamma at least as well as Compound A
same,FFA,KKA^y mice; 14-day oral gavage BID,decreases the FFA
same,HbA1c levels,KKA^y mice; 14-day oral gavage BID,decreased
same,Heart weight,KKA^y mice; 14-day oral gavage BID,has no effect on heart weight
same,Body weight,KKA^y mice; oral gavage BID,do not alter body weight
